Tests used:
Homo sapiens [1] = species on record: Homo sapiens; experiment: Selectivity ratio of IC50 for human CYP1A2 expressed in yeast microsomal membranes to IC50 for human CYP1A1 expressed in yeast microsomal membranes; type: cell membranes
Cytochrome P450 1A2 [2] = target: T1, Cytochrome P450 1A2 (Homo sapiens, UniProt P05177); experiment: Inhibition of human CYP1A2 expressed in yeast cells; type: ADME, cell-based
T1 sequence (P05177 whole entry): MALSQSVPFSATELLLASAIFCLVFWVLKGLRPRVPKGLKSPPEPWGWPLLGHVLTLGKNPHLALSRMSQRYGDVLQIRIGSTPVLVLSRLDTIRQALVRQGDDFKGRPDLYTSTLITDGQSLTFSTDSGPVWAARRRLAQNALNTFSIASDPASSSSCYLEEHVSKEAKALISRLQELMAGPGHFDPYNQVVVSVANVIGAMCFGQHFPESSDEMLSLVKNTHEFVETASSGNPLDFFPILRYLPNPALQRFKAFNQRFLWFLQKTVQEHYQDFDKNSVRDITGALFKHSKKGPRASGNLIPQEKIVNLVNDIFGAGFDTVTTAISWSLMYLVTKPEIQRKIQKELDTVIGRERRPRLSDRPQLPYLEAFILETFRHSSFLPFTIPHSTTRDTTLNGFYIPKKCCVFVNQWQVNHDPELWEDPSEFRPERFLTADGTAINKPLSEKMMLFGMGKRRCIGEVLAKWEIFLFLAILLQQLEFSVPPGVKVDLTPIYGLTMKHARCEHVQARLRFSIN

Cytochrome P450 1A1 [3] = target: T2, Cytochrome P450 1A1 (Homo sapiens, UniProt P04798); experiment: Time-dependent inhibition of human CYP1A1 expressed in yeast microsomal membranes using 7-ethoxyresorufin as substrate; type: cell membranes
T2 sequence (P04798 whole entry): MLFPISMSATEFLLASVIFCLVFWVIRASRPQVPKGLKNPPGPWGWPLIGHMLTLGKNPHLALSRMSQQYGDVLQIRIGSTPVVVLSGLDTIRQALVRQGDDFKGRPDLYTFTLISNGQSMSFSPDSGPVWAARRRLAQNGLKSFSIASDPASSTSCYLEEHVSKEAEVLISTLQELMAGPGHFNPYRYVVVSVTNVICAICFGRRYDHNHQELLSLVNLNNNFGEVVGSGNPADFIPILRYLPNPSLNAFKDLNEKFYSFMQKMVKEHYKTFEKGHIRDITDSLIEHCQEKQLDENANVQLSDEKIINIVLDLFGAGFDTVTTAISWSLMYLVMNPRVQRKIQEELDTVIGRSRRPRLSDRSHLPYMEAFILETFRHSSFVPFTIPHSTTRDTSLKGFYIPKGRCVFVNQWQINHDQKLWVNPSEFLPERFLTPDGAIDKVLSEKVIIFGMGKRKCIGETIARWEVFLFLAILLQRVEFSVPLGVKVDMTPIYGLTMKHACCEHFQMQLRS

Cytochrome P450 3A4 = Cytochrome P450 3A4 (Homo sapiens, UniProt P08684); experiment: Inhibition of human CYP3A4 expressed in yeast microsomal membranes using dibenzylfluorescein as substrate measured after 10 mins by fluorescence assay; type: ADME, cell membranes, Microsomal Membrane
Cytochrome P450 1A1 [4] = target: T2, Cytochrome P450 1A1; experiment: Inhibition of human CYP1A1 expressed in yeast cells; type: cell-based
Homo sapiens [5] = species on record: Homo sapiens; experiment: Selectivity ratio of IC50 for human CYP1B1 expressed in yeast microsomal membranes to IC50 for human CYP1A1 expressed in yeast microsomal membranes; type: cell membranes
Cytochrome P450 1B1 [6] = target: T3, Cytochrome P450 1B1 (Homo sapiens, UniProt Q16678); experiment: Inhibition of human CYP1B1 expressed in yeast cells; type: cell-based
T3 sequence (Q16678 whole entry): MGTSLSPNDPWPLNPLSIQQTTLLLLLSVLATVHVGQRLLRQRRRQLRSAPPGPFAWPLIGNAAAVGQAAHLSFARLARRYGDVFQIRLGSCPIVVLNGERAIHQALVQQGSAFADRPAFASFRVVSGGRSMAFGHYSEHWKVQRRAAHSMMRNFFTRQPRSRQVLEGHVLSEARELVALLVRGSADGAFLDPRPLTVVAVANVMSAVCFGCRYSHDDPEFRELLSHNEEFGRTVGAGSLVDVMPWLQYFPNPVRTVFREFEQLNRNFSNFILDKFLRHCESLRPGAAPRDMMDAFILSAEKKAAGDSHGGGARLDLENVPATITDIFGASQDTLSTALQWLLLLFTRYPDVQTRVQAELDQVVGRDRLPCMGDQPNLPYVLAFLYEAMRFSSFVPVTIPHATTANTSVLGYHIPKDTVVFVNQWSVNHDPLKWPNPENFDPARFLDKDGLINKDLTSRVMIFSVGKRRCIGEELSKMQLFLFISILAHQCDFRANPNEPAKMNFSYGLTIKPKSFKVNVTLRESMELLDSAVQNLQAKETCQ

Cytochrome P450 2C19 = Cytochrome P450 2C19 (Homo sapiens, UniProt P33261); experiment: Inhibition of recombinant human CYP2C19 expressed in HEK293 cells using 3-cyano-7-ethoxycoumarin as substrate pretreated for 30 mins followed by substrate addition measured for 60 mins by fluorescence assay; type: ADME
Cytochrome P450 2B6 = target: T4, Cytochrome P450 2B6 (Homo sapiens, UniProt P20813); experiment: Inhibition of human CYP2B6 expressed in yeast cells; type: ADME, cell-based
T4 sequence (P20813 whole entry): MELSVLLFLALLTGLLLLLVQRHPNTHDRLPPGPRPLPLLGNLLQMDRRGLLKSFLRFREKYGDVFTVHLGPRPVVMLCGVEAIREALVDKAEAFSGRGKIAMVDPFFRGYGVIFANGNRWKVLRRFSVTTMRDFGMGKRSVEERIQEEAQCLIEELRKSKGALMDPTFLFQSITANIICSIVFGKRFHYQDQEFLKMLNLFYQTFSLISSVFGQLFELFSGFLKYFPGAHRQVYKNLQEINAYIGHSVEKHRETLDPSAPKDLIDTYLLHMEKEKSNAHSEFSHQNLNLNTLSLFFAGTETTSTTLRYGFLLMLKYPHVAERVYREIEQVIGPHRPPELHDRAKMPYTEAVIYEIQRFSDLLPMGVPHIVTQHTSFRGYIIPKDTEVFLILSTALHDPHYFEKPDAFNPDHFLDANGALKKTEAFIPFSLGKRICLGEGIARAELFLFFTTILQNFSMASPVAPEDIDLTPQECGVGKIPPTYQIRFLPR

Cytochrome P450 1A1 [7] = target: T2, Cytochrome P450 1A1; experiment: Time-dependent inhibition of recombinant human CYP1A1 expressed in HEK293 cells using 7-ethoxyresorufin as substrate
Cytochrome P450 1B1 [8] = target: T3, Cytochrome P450 1B1; experiment: Inhibition of recombinant human CYP1B1 expressed in HEK293 cells using 7-ethoxyresorufin as substrate pretreated for 30 mins followed by substrate addition measured for 60 mins by fluorescence assay; type: cell-based
Homo sapiens [9] = species on record: Homo sapiens; experiment: Selectivity ratio of IC50 for recombinant human CYP2C9 to IC50 for recombinant human CYP1A1
Cytochrome P450 1A2 [10] = target: T1, Cytochrome P450 1A2; experiment: Inhibition of human CYP1A2 expressed in yeast microsomal membranes using 3-cyano-7-ethoxycoumarin as substrate measured after 10 mins by fluorescence assay; type: ADME, cell membranes, Microsomal Membrane
Homo sapiens [11] = species on record: Homo sapiens; experiment: Selectivity ratio of IC50 for recombinant human CYP2C19 to IC50 for recombinant human CYP1A1
Cytochrome P450 2D6 = Cytochrome P450 2D6 (Homo sapiens, UniProt P10635); experiment: Inhibition of human CYP2D6 expressed in yeast microsomal membranes using 7-ethoxy-methyloxy-3-cyanocoumarin as substrate measured after 10 mins by fluorescence assay; type: ADME, cell membranes, Microsomal Membrane
Cytochrome P450 2D6, sequence (P10635 whole entry): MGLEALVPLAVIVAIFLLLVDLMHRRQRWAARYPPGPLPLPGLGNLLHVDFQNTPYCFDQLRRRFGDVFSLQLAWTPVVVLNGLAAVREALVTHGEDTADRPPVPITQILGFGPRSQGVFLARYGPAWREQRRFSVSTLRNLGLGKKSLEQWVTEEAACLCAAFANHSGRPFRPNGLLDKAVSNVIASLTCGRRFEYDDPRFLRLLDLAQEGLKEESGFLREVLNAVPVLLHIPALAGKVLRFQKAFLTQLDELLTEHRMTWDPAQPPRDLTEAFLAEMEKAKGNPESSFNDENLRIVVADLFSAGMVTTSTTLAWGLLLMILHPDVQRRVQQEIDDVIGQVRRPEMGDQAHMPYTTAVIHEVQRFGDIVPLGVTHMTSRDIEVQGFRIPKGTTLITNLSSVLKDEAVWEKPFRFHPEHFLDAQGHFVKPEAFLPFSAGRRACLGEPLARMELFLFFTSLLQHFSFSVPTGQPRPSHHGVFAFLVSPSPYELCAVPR

Cytochrome P450 2C19, sequence (P33261 whole entry): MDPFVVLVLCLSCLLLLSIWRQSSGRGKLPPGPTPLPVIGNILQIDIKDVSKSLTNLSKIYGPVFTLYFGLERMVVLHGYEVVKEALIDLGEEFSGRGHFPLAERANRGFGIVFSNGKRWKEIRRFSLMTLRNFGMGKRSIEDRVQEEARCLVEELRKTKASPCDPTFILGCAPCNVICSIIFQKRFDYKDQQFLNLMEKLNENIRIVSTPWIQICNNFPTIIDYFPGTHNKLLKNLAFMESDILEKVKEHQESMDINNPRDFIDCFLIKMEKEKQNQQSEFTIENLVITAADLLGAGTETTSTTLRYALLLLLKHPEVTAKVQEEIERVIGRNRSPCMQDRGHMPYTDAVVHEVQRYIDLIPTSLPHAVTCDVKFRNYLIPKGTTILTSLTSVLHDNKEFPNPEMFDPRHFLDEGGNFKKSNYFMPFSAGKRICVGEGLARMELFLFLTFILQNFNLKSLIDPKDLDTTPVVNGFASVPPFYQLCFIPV
Cytochrome P450 3A4, sequence (P08684 whole entry): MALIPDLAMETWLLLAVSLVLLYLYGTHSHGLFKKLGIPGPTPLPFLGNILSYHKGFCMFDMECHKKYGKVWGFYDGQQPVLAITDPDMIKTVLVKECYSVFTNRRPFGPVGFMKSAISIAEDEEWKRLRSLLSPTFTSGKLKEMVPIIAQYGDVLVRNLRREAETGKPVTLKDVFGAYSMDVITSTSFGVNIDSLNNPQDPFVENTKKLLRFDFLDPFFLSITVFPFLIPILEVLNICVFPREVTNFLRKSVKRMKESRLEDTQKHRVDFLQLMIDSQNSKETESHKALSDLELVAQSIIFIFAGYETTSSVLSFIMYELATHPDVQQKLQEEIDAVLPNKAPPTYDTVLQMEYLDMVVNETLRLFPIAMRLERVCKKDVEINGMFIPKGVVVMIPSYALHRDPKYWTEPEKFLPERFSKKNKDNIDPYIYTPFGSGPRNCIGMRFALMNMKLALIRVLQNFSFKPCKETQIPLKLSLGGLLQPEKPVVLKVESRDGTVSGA

Ratio IC50 (Homo sapiens [1]): > 10
IC50 (Cytochrome P450 1A2 [2]): 1.82 µM
TDI (Cytochrome P450 1A1 [3]): Not Active
IC50 (Cytochrome P450 3A4): > 20 µM
IC50 (Cytochrome P450 1A1 [4]): 0.15 µM
Ratio IC50 (Homo sapiens [5]): > 10
IC50 (Cytochrome P450 1B1 [6]): 6.12 µM
IC50 (Cytochrome P450 2C19): > 10 µM
IC50 (Cytochrome P450 2B6): > 10 µM
TDI (Cytochrome P450 1A1 [7]): Not Active
IC50 (Cytochrome P450 1B1 [8]): 8.18 µM
Ratio IC50 (Homo sapiens [9]): > 100
IC50 (Cytochrome P450 1A2 [10]): 1.09 µM
Ratio IC50 (Homo sapiens [11]): > 100
IC50 (Cytochrome P450 2D6): 5 µM
Structure (SMILES): COc1cc(/C=C/C(=O)c2ccncc2)cc(OC)c1OC
